Source: PubChem BioAssay AID1259407 (Chemical Carcinogenesis Research Information System (CCRIS), 2018)
The source made the active and inactive calls. The rule behind the calls is not given here.

System: CCRIS mutagenicity, Ames/micronucleus/aberration tests
Test: CCRIS mutagenicity studies

For `C=CC#N`, the mutagenic call (Test System: AMES SALMONELLA TYPHIMURIUM, Strain/Indicator: TA1535, Metabolic Activation: HAMSTER LIVER S-9, AROCLOR 1254 (5, 10, OR 30%), Method: PREINCUBATION) was “active; positive”, the mutagenic call (Test System: AMES SALMONELLA TYPHIMURIUM, Strain/Indicator: TA1535, Metabolic Activation: HAMSTER, LIVER, S-9, AROCLOR 1254 (2.5-20%), Method: STANDARD PLATE) was “active; positive” and the mutagenic call (Test System: AMES SALMONELLA TYPHIMURIUM, Strain/Indicator: TA1535, Metabolic Activation: HAMSTER, LIVER, S-9, AROCLOR 1254 (10%), Method: STANDARD PLATE) was “active; positive”. For the same compound, the mutagenic call (Test System: AMES SALMONELLA TYPHIMURIUM, Strain/Indicator: TA1535, Metabolic Activation: HAMSTER, LIVER, S-9, AROCLOR 1254 (10, 20%), Method: PREINCUBATION) was “active; positive”, the mutagenic call (Test System: AMES SALMONELLA TYPHIMURIUM, Strain/Indicator: TA1535, Metabolic Activation: HAMSTER, LIVER, S-9, AROCLOR 1254 (20%), Method: STANDARD PLATE) was “active; positive” and the mutagenic call (Test System: AMES SALMONELLA TYPHIMURIUM, Strain/Indicator: TA1535, Metabolic Activation: MOUSE, LIVER, S-9, AROCLOR 1254, Method: LIQUID, VAPOR, SPOT) was “active; positive”. For the same compound, the mutagenic call (Test System: AMES SALMONELLA TYPHIMURIUM, Strain/Indicator: TA1535, Metabolic Activation: NONE, Method: PREINCUBATION) was “inactive; negative”, the mutagenic call (Test System: AMES SALMONELLA TYPHIMURIUM, Strain/Indicator: TA1535, Metabolic Activation: NONE, Method: STANDARD PLATE) was “inactive; negative” and the mutagenic call (Test System: AMES SALMONELLA TYPHIMURIUM, Strain/Indicator: TA1535, Metabolic Activation: RAT LIVER S-9, AROCLOR 1254 (5%), Method: PREINCUBATION) was “active; positive”. The mutagenic call (Test System: AMES SALMONELLA TYPHIMURIUM, Strain/Indicator: TA1535, Metabolic Activation: RAT LIVER S-9, AROCLOR 1254 (5,10, OR 30%), Method: PREINCUBATION) was “active; positive”, the mutagenic call (Test System: AMES SALMONELLA TYPHIMURIUM, Strain/Indicator: TA1535, Metabolic Activation: RAT LIVER S-9, AROCLOR 1254 (10% OR 30%), Method: PREINCUBATION) was “active; positive” and the mutagenic call (Test System: AMES SALMONELLA TYPHIMURIUM, Strain/Indicator: TA1535, Metabolic Activation: RAT, LIVER, S-9, 3-METHYLCHOLANTHRENE OR PCB OR PHENOBARBITAL, Method: DESICCATOR) was “active; positive”. For the same compound, the mutagenic call (Test System: AMES SALMONELLA TYPHIMURIUM, Strain/Indicator: TA1535, Metabolic Activation: RAT, LIVER, S-9, AROCLOR 1254, Method: STANDARD PLATE) was “inactive; negative”, the mutagenic call (Test System: AMES SALMONELLA TYPHIMURIUM, Strain/Indicator: TA1537, Metabolic Activation: NONE, Method: STANDARD PLATE) was “inactive; negative” and the mutagenic call (Test System: AMES SALMONELLA TYPHIMURIUM, Strain/Indicator: TA1537, Metabolic Activation: RAT, LIVER, S-9, AROCLOR 1254, Method: STANDARD PLATE) was “inactive; negative”. The mutagenic call (Test System: AMES SALMONELLA TYPHIMURIUM, Strain/Indicator: TA1538, Metabolic Activation: MOUSE, LIVER, S-9, AROCLOR 1254, Method: LIQUID, VAPOR, SPOT) was “active; positive”, the mutagenic call (Test System: AMES SALMONELLA TYPHIMURIUM, Strain/Indicator: TA1538, Metabolic Activation: NONE, Method: STANDARD PLATE) was “inactive; negative” and the mutagenic call (Test System: AMES SALMONELLA TYPHIMURIUM, Strain/Indicator: TA1538, Metabolic Activation: RAT, LIVER, S-9, AROCLOR 1254, Method: STANDARD PLATE) was “inactive; negative”. For the same compound, the mutagenic call (Test System: AMES SALMONELLA TYPHIMURIUM, Strain/Indicator: TA1978, Metabolic Activation: MOUSE, LIVER, S-9, AROCLOR 1254, Method: VAPOR) was “active; positive”, the mutagenic call (Test System: Ames Salmonella typhimurium, Strain/Indicator: YG7108pin3ERb5, Metabolic Activation: None, Method: Standard plate) was “inactive; negative” and the mutagenic call (Test System: CHINESE HAMSTER V-79, Strain/Indicator: V-79 (HGPRT)/8-AZAGUANINE, Metabolic Activation: NONE, Method: REPLATING) was “inactive; negative”. For the same compound, the mutagenic call (Test System: CHINESE HAMSTER V-79, Strain/Indicator: V-79 (HGPRT)/8-AZAGUANINE, Metabolic Activation: RAT, LIVER, S-9, AROCLOR 1254, Method: REPLATING) was “inactive; negative”, the mutagenic call (Test System: E. COLI, Strain/Indicator: WP2, Metabolic Activation: NONE, Method: FLUCTUATION) was “active; positive” and the mutagenic call (Test System: E. COLI, Strain/Indicator: WP2, Metabolic Activation: NONE, Method: STANDARD PLATE) was “active; positive”. The mutagenic call (Test System: E. COLI, Strain/Indicator: WP2 UVRA, Metabolic Activation: NONE, Method: STANDARD PLATE) was “active; positive”, the mutagenic call (Test System: MOUSE LYMPHOMA, Strain/Indicator: L5178Y (TK+/+)/OUABAIN, Metabolic Activation: NONE, Method: SUSPENSION/PLATE) was “inactive; negative” and the mutagenic call (Test System: MOUSE LYMPHOMA, Strain/Indicator: L5178Y (TK+/+)/OUABAIN, Metabolic Activation: RAT LIVER S-9, AROCLOR 1254, Method: SUSPENSION/PLATE) was “inactive; negative”. The mutagenic call (Test System: MOUSE LYMPHOMA, Strain/Indicator: L5178Y (TK+/TK-), Metabolic Activation: RAT, LIVER, S-9, Method: SUSPENSION/PLATE) was “active; positive”, the mutagenic call (Test System: MOUSE LYMPHOMA, Strain/Indicator: L5178Y(TK+/TK-)/TRIFLUOROTHYMIDINE, Metabolic Activation: NONE, Method: SUSPENSION PLATE) was “active; positive” and the mutagenic call (Test System: UDS HUMAN MAMMARY EPITHELIAL CELLS, Strain/Indicator: THY INCORP, Metabolic Activation: NONE, Method: AUTORADIOGRAPHY) was “inactive; negative”. The mutagenic call (Test System: UDS PRIMARY RAT HEPATOCYTES, Strain/Indicator: THY INCORP, Metabolic Activation: NONE, Method: AUTORADIOGRAPHY) was “inactive; negative”, the mutagenic call (Test System: UDS PRIMARY RAT HEPATOCYTES, Strain/Indicator: THY INCORP, Metabolic Activation: NONE, Method: IN VIVO-IN VITRO) was “inactive; negative” and the mutagenic call (Test System: UDS PRIMARY RAT SPERMATOCYTES, Strain/Indicator: THY INCORP, Metabolic Activation: NONE, Method: IN VIVO-IN VITRO) was “inactive; negative”. For the same compound, the mutagenic call (Test System: UDS RAT HEPATOCYTES, Strain/Indicator: THY INCORP, Metabolic Activation: NONE, Method: LIQUID SCINTILLATION COUNTING) was “active; positive”.
